What was measured:
RAGE/CML-BSA = biological target: T1, RAGE/CML-BSA (Homo sapiens, UniProt Q15109); test: Solid phase binding assay, RAGE to CML-BSA; settings: Table 2
T1 construct: purchased R&D Systems (Minneapolis, Minn.)
Procedure: (§1) Solid phase binding assays. Solid phase binding assays were used to study the ability of SAGEs to inhibit RAGE binding to its ligands. For studies of the effect of SAGEs on RAGE binding to its ligands, polyvinyl 96-well plates were coated with 5 μg/well of specific ligand (CML-BSA, HMGB-I or S100b calgranulin). Plates were incubated overnight at 4° C. and washed thrice with PBS-0.05% Tween-20 (PBST). Separately, RAGE-Fc chimera (100 μL containing 0.5 μg/ml in PBST-0.1% BSA) was incubated with an equal volume of serially diluted SAGEs (0.001 to 1,000 μg/ml in PBST-BSA) overnight at 4° C. The following day, 50 μL of RAGE-SAGE mix was transferred to each respective ligand-coated well and incubated at 37° C. for 2 h. Wells were then washed four times with PBST. To detect bound RAGE, 50 μL of anti-RAGE antibody (0.5 μg/ml) was added to each well, the mixture was incubated for 1 h at room temperature, and wells were washed again four times with PBST. Horse-radish peroxidase conjugated secondary antibody (1:10,000 antibody dilution in PBST; 50 μL per well) was added, wells were incubated for 1 h at room temperature, and then washed once with PBST. A colorimetric reaction was initiated by addition of 50 μL of tetramethyl benzidine chromogen (TMB single solution chromogen) and terminated after 15 min by addition of 50 μL of 1 N HCl. Absorbance at 450 nm was read using an automated microplate reader.

[1] = biological target: T2, Hageman factor (Factor XII) (Homo sapiens, UniProt P00748); test: Activation of Hageman factor (Factor XII) in pooled human plasma, amidolytic activity; settings: Table 2, table line reads IC50 values
T2 sequence (P00748 20-615): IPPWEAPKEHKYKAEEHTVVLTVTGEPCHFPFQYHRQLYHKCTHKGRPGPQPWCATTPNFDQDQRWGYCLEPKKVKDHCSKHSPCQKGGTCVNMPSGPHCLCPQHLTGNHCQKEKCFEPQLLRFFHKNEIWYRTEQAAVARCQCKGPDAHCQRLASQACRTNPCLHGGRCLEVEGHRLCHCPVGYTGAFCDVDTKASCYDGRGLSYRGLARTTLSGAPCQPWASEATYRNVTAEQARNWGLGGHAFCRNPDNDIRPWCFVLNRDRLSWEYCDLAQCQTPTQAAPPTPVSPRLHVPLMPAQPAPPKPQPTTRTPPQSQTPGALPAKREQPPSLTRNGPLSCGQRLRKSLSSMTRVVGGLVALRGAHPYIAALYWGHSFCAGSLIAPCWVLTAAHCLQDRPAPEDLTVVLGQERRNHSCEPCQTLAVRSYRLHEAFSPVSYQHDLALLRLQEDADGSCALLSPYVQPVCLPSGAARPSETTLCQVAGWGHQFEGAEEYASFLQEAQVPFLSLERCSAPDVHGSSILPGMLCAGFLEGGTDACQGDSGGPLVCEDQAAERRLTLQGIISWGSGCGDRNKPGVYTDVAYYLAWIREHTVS
Procedure: Enzymatic assays. […] Pooled human plasma (5 μl) was incubated with 100 μl of SAHA (0.1 to 1000 μg/ml) in 0.05 M HEPES containing Triton X-100 for 5 min at 5° C.
SAGEs were screened for their ability to stimulate intrinsic coagulation (activation of Hageman factor). Pooled human plasma was incubated with heparin or low molecular weight (Lmw) sulfated and fluoroalkylated HAs (Lmw-OSFHA-1, Lmw-OSFHA-2) and amidolytic activity was determined using the substrate D-cyclohydrotyrosyl-Gly-Arg-p-NA.

Xa = test: Anti-Xa anticoagulant activity; format: biochemical
RAGE/HMGB1 = biological target: T3, RAGE/HMGB1 (Homo sapiens, UniProt Q15109); test: Solid phase binding assay, RAGE to HMGB-1 (amphoterin); settings: Table 2
T3 construct: purchased R&D Systems (Minneapolis, Minn.)
T3 sequence (Q15109 with tags, fused parts or gaps limits assumed): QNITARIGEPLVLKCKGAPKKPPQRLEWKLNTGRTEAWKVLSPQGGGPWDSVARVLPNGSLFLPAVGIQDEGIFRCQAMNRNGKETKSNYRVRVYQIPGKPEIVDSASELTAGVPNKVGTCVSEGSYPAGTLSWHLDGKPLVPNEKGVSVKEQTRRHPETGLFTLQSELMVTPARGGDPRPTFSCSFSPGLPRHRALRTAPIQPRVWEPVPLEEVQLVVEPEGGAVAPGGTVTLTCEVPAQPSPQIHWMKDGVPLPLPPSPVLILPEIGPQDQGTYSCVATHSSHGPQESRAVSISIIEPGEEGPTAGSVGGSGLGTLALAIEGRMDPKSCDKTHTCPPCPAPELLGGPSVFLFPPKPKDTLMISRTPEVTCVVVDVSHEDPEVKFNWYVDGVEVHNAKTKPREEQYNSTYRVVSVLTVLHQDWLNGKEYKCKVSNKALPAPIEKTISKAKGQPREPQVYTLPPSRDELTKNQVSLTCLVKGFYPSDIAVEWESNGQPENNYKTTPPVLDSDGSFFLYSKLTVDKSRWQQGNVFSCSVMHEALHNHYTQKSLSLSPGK
Procedure: as §1

RAGE/Mac-1 = biological target: T4, RAGE/Mac-1 (Homo sapiens, UniProt Q15109); test: U937 monocyte binding to RAGE (cell binding assay); settings: Table 2; U937 binding to RAGE-Fc
T4 construct: purchased R&D Systems (Minneapolis, Minn.)
T4 sequence (Q15109 with tags, fused parts or gaps limits assumed): as above
Procedure: (§2) Cell Binding Assays. The effect of SAGEs on binding of U937 monocytes to P-selectin or RAGE was studied in high-bind micro plates coated with 8 μg/ml protein A ([…]) in 0.2 M carbonate-bicarbonate buffer (pH 9.4). Plates were washed with phosphate buffered saline containing 1% BSA (PBS-BSA), and P-selectin-Fc or RAGE-Fc chimera (50 μL containing 1 μg) was added to each well and incubated for 2 h at room temperature or overnight at 4° C., respectively. Following incubation, wells were washed twice with PBS-BSA. […] As a negative control, 50 μL of 10 mM EDTA was added to select wells to prevent cell binding through sequestration of calcium. At the end of the incubation period, 50 μL of U937 cells (10^5 cells/well, calcein-labeled according to manufacturer's instructions) were added to each well and plates were incubated an additional 30 min at room temperature. The wells were then washed thrice with PBS, and bound cells were lysed by addition of 100 μL of Tris-TritonX-100 containing buffer. Fluorescence was measured on a microplate reader using excitation of 494 nm and emission of 517 nm.

human leukocyte elastase = biological target: T5, human leukocyte elastase (Homo sapiens, UniProt P08246); test: Human leukocyte elastase activity assay, chromogenic substrate; format: biochemical; settings: Table 2
T5 sequence (P08246 30-267): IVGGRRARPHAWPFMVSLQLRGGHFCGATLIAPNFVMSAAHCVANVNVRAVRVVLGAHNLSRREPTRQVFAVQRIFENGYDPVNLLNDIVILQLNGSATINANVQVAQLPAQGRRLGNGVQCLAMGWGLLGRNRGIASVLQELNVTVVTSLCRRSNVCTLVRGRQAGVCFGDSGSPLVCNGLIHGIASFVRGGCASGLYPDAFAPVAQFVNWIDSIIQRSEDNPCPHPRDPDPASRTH
Excerpt: Enzymatic assays. […] Nat Biotech 26:669-675, 2008).

IIa = test: Anti-IIa anticoagulant activity; format: biochemical
RAGE/S100B = biological target: T6, RAGE/S100B (Homo sapiens, UniProt Q15109); test: Solid phase binding assay, RAGE to S100b calgranulin; settings: Table 2
T6 construct: purchased R&D Systems (Minneapolis, Minn.)
T6 sequence (Q15109 with tags, fused parts or gaps limits assumed): as the sequence (Q15109 with tags, fused parts or gaps limits assumed) above
Procedure: as §1

P-Selectin/PSGL = biological target: T7, P-Selectin/PSGL (Homo sapiens, UniProt P16109); test: U937 monocyte binding to P-selectin (cell binding assay); settings: Table 2; U937 binding to P-selectin-Fc
T7 construct: purchased R&D Systems (Minneapolis, Minn.)
T7 sequence (P16109 with tags, fused parts or gaps limits assumed): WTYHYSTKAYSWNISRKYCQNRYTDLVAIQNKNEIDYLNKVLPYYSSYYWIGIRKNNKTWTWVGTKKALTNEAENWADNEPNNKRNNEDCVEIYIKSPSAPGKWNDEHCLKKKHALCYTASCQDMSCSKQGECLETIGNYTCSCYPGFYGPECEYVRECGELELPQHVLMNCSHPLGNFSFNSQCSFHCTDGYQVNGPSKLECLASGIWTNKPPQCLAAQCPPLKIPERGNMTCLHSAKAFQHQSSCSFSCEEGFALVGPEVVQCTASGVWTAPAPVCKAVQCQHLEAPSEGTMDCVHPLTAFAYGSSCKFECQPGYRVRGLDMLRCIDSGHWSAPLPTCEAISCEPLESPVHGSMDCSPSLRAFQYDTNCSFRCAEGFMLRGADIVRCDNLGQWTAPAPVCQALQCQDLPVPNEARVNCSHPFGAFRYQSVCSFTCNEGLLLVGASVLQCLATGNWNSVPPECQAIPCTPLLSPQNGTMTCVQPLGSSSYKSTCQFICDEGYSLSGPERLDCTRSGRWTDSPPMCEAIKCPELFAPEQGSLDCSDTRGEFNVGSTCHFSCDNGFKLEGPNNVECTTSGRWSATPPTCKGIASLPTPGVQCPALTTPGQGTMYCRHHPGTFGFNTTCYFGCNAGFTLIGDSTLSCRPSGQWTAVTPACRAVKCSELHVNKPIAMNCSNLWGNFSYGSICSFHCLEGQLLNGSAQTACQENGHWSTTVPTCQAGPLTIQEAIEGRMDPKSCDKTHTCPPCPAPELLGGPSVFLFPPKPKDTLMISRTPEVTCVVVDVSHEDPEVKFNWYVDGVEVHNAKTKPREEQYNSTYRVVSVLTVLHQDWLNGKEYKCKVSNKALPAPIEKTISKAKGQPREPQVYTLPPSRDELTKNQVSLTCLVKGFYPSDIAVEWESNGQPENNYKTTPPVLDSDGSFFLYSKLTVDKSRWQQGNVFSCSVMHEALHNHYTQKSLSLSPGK
Procedure: as §2

T1 sequence (Q15109 with tags, fused parts or gaps limits assumed): as the sequence (Q15109 with tags, fused parts or gaps limits assumed) above

For Heparin [reference compound], the RAGE/CML-BSA (RAGE/CML-BSA) was 0.39 µg/mL, the “Hageman Factor” value [1] was 0.4 µg/mL and the anti-Xa anticoagulant activity (Xa) was 150 U/mg. For the same substance, the RAGE/HMGB1 (RAGE/HMGB1) was 0.04 µg/mL, the RAGE/Mac-1 (RAGE/Mac-1) was 0.11 µg/mL and the “Leukocyte Elastase” value (human leukocyte elastase) was 0.21 µg/mL. For the same substance, the anti-IIa anticoagulant activity (IIa) was 150 U/mg, the RAGE/S100B (RAGE/S100B) was 1.29 µg/mL and the P-Selectin/PSGL (P-Selectin/PSGL) was 0.3 µg/mL.

Source: patent US8399430B2, “Alkylated semi synthetic glycosaminoglycosan ethers, and methods for making and using thereof” (University of Utah Research Foundation, priority 2008, dated 2013)
